For one test, the target named is Substance-P receptor (Homo sapiens, UniProt P25103). The test is classed as cell membranes, CHO, Membrane. The conditions noted are these: cho. Further: in other assays of this panel Not Active means under 50% inhibition at 10 µM.
A further test addresses Adenosine receptor A2a (Homo sapiens, UniProt P29274). The test is described as follows: DRUGMATRIX: Adenosine A2A radioligand binding (ligand: […]). It is filed as cell membranes, HEK293, Membrane. As to conditions: Not Active = under 50% inhibition at 10 µM.
Test [1] has as its target Delta-type opioid receptor (Homo sapiens, UniProt P41143). The test is classed as cell membranes, HEK293, Membrane. As to conditions: hek293. Further: in other assays of this panel Not Active means under 50% inhibition at 10 µM.
A further test deals with T1, Glucocorticoid receptor (Homo sapiens, UniProt P04150).
T1 sequence (P04150 whole entry): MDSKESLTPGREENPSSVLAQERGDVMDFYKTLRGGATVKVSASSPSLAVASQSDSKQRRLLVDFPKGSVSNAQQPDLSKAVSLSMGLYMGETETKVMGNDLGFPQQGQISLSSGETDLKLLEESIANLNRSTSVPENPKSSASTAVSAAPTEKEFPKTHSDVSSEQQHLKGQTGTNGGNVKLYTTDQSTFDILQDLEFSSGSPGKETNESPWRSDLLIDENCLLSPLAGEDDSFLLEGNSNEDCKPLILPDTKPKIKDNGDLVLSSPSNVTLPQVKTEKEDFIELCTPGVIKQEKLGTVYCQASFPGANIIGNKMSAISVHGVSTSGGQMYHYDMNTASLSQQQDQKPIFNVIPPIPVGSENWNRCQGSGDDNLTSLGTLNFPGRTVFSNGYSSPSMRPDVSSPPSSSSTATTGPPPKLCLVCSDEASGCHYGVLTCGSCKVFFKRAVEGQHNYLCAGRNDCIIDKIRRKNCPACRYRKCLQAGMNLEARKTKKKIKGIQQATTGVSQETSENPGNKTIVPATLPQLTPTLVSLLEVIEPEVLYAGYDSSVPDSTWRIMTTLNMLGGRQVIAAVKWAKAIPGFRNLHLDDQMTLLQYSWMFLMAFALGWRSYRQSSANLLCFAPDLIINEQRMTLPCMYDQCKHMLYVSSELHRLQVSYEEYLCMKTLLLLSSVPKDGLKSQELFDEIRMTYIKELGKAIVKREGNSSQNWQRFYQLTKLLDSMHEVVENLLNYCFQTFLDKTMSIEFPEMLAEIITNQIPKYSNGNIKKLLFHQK
As to conditions: hela s3.

The nature of test [2]: DRUGMATRIX: Interleukin IL-1 radioligand binding (ligand: [125I] interleukin 1beta). The test is classed as cell membranes, Membrane. The conditions noted are these: nih3t3; Not Active = under 50% inhibition at 10 µM.
Test [3] in a line: DRUGMATRIX: Calcium Channel Type L, Dihydropyridine radioligand binding (ligand: [3H] Nitrendipine). The conditions noted are these: Not Active = under 50% inhibition at 10 µM. The test is classed as cell membranes, Rattus norvegicus, Wistar, Cerebral cortex, Membrane.
Test [4] is described as follows: DRUGMATRIX: Phosphodiesterase PDE4 enzyme inhibition (substrate: [3H]cAMP + cAMP). The conditions noted are these: u-937; Not Active = under 50% inhibition at 10 µM.
Test [5] in a line: DRUGMATRIX: Leukotriene, BLT (LTB4) radioligand binding (ligand: [3H]LTB4). The test is classed as cell membranes, Membrane. As to conditions: u-937; Not Active = under 50% inhibition at 10 µM.
Test [6] in a line: DRUGMATRIX: Phosphodiesterase PDE3 enzyme inhibition (substrate: [3H]cAMP + cAMP). It is filed as tissue-based, Homo sapiens. As to conditions: platelet, Not Active = under 50% inhibition at 10 µM.
Test [7] has as its target Kappa-type opioid receptor (Homo sapiens, UniProt P41145). The test is described as follows: DRUGMATRIX: Opiate kappa (OP2, KOP) radioligand binding (ligand: [3H] Diprenorphine). The test is classed as cell membranes, HEK293, Membrane. As to conditions: hek293; Not Active = under 50% inhibition at 10 µM.
For test [8], the target named is T2, C-X-C chemokine receptor type 2 (Homo sapiens, UniProt P25025). Further: in other assays of this panel Not Active means under 50% inhibition at 10 µM.
T2 sequence (P25025 whole entry): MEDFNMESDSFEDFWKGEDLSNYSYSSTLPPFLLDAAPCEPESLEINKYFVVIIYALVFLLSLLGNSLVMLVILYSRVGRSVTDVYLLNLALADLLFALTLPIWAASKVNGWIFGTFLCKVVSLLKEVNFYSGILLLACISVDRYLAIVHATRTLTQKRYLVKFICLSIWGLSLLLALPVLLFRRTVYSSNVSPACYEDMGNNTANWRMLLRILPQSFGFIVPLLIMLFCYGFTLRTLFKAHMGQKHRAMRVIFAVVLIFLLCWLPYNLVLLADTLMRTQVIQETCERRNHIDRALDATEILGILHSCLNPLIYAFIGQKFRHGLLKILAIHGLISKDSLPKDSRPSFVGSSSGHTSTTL
The test is classed as cell membranes, Membrane. The conditions noted are these: cho-k1.

Test [9] in a line: DRUGMATRIX: ATPase, Na+/K+ enzyme inhibition (substrate: ATP). The test is classed as tissue-based, Sus scrofa, Heart. As to conditions: Not Active = under 50% inhibition at 10 µM.
Test [10] has as its target T3, Amine oxidase [flavin-containing] A (Homo sapiens, UniProt P21397).
T3 sequence (P21397 whole entry): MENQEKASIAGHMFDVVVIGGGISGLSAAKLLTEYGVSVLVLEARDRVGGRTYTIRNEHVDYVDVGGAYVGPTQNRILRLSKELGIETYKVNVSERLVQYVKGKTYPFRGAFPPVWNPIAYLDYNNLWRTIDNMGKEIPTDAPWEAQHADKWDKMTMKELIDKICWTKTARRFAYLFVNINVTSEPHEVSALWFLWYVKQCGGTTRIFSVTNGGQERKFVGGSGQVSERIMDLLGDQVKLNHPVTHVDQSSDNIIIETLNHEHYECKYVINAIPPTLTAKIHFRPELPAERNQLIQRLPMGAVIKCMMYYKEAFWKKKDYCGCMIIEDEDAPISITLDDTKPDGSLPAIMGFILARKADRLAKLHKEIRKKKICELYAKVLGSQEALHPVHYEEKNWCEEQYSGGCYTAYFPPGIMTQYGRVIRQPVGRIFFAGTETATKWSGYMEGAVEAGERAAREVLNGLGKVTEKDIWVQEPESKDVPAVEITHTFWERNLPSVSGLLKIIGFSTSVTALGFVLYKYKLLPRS
The test is described as follows: DRUGMATRIX: Monoamine Oxidase MAO-A enzyme inhibition (substrate: Kynuramine). As to conditions: bti-tn-5b1-4; Not Active = under 50% inhibition at 10 µM. Details: species or system BTI-TN-5B1-4.

In general, IC50 refers to the concentration that gives 50% inhibition. Usually Ki stands for a dissociation constant, usually derived from enzyme kinetics or from competition with a known ligand.

Each structure is given as a SMILES string.

Sequence of Kappa-type opioid receptor (P41145 whole entry): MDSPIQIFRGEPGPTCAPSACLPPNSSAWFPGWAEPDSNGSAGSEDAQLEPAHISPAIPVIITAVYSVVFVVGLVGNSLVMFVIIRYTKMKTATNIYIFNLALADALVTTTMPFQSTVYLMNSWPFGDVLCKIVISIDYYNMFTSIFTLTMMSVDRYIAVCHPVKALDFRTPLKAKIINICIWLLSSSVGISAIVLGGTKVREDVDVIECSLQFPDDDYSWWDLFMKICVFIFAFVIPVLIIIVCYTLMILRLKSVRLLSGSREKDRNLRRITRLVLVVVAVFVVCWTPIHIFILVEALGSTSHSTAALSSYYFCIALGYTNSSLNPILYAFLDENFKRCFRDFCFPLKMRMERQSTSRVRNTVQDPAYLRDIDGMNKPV
Sequence of Substance-P receptor (P25103 whole entry): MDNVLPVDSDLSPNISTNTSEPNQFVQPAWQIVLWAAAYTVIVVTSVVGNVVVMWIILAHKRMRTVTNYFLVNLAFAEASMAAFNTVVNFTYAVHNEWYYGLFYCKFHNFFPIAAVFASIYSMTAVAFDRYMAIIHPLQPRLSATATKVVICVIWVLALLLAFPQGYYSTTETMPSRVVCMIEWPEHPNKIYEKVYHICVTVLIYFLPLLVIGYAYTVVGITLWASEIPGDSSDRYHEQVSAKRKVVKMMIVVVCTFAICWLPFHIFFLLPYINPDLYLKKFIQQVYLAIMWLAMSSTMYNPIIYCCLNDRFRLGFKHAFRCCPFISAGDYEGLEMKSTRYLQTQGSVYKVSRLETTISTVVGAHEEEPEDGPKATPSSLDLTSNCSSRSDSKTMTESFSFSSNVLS
Sequence of Adenosine receptor A2a (P29274 whole entry): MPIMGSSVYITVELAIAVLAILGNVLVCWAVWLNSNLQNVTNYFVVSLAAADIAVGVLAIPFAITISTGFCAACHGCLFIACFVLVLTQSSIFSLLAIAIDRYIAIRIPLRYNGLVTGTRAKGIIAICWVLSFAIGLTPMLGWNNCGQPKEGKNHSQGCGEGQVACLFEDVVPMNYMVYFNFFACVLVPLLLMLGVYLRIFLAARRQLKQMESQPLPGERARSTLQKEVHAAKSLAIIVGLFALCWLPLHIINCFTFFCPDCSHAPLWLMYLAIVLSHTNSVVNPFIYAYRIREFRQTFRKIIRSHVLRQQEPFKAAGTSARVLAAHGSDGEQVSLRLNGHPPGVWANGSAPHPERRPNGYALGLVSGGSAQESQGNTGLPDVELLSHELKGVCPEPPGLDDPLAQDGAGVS
Sequence of Delta-type opioid receptor (P41143 whole entry): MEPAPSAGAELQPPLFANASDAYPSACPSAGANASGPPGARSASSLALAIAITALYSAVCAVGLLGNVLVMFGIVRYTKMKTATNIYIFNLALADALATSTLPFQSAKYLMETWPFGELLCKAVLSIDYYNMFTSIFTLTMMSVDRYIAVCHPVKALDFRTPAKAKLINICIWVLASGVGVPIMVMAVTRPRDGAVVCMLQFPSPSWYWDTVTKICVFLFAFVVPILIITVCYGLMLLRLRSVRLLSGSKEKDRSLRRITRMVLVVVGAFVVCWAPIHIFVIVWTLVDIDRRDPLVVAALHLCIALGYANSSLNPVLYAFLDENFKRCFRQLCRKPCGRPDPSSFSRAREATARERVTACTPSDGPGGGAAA

For `OCc1ccccc1` [BENZYL ALCOHOL], the concentration for half-maximal inhibition (IC50) result (at Substance-P receptor; on Adenosine receptor A2a (hek293); in [1]; against Glucocorticoid receptor; in test [2]; in test [3]) was “Not Active” throughout. In addition, the concentration for half-maximal inhibition (IC50) result in test [4], in test [5], in [6], in test [7], in test [8] and in [9] was “Not Active” throughout. The IC50 entry in [10] is reported as “Not Active”. For the same compound, the Ki result in test [2], in [3], in [4], in test [5], in [6] and in [9] was “Not Active” in each case.

As for `CC(C)(Oc1ccc(CCNC(=O)c2ccc(Cl)cc2)cc1)C(=O)O` [BEZAFIBRATE], the IC50 result (against Substance-P receptor; at Adenosine receptor A2a (hek293); in test [1]; on Glucocorticoid receptor; in test [2]; in test [3]) was “Not Active” each time. Further, the IC50 entry in test [4], in [5], in test [6], in [7], in test [8] and in [9] was “Not Active” in each case. Moreover, the IC50 entry in test [10] is recorded as “Not Active”. The inhibitory constant (Ki) entry in test [2], in [3], in [4], in test [5], in test [6] and in [9] was “Not Active” each time.

On to `Oc1c(Cl)cc(Cl)cc1Sc1cc(Cl)cc(Cl)c1O` [BITHIONOL], for which the IC50 entry against Substance-P receptor is “Not Active”; at Adenosine receptor A2a (read-out: IC50), 1170 nM; in test [1], “Not Active”; at Glucocorticoid receptor it was “Not Active”; in [2], “Not Active”; in test [3] it was “Not Active”. The IC50 result is “Not Active” in test [4]; “Not Active” in test [5]; 2720 nM in [6] (read-out: IC50); “Not Active” in test [7]; “Not Active” in [8]; 5020 nM in test [9] (read-out: IC50). Moreover, the IC50 entry in test [10] was “Not Active”. In addition, the Ki on Adenosine receptor A2a (read-out: Ki) is 655 nM; in [2], “Not Active”; in [3], “Not Active”; in test [4] it was “Not Active”; in test [5], “Not Active”.

`Brc1ccccc1` [BROMOBENZENE]: the IC50 result (against Substance-P receptor; at Adenosine receptor A2a (hek293); in test [1]; at Glucocorticoid receptor; in test [2]; in test [3]) was “Not Active” each time. The IC50 result in [4], in [5], in [6], in [7], in test [8] and in [9] was “Not Active” each time. For the same compound, in [10], the IC50 result is “Not Active”. The Ki result in test [2], in [3], in [4], in test [5], in test [6] and in [9] was “Not Active” in each case.

For the compound `CCCCOC(=O)c1ccc(N)cc1` [BUTAMBEN], the IC50 result (against Substance-P receptor; on Adenosine receptor A2a (hek293); in [1]; against Glucocorticoid receptor; in [2]; in test [3]) was “Not Active” in each case. The IC50 entry in test [4], in [5], in test [6], in test [7], in test [8] and in test [9] was “Not Active” in each case. In addition, the IC50 result in test [10] is on record as “Not Active”. The Ki entry in test [2], in [3], in test [4], in [5], in test [6] and in test [9] was “Not Active” in each case.

Take `CC[C@@]1(O)C(=O)OCc2c1cc1n(c2=O)Cc2cc3ccccc3nc2-1` [CAMPTOTHECIN]: the IC50 result (on Substance-P receptor; on Adenosine receptor A2a (hek293); in [1]; on Glucocorticoid receptor; in test [2]; in test [3]) was “Not Active” in each case. In addition, the IC50 entry in test [4], in test [5], in [6], in test [7], in [8] and in test [9] was “Not Active” throughout. Also, the concentration for half-maximal inhibition (IC50) result in test [10] is “Not Active”. Further, the Ki result in [2], in test [3], in test [4], in test [5], in [6] and in [9] was “Not Active” in each case.

The values are drawn from ChEMBL document CHEMBL1909046, “DrugMatrix in vitro pharmacology data”.
